One assay has as its system human mast cells. The assay can be described thus: Calcium flux assay in antigen-stimulated human mast cells. The format is cell-based. The note with it: 2 hours treatment, NP-BSA stimulation. As for the experimental part: (§1) Human mast cells were derived from bone marrow CD34+ cells from six healthy donors for up to eight weeks by culturing CD34+ cells in StemSpan SFEM II (Stem Cell Technologies) supplemented with stem cell factor (SCF; 100 ng/mL; R&D System), IL-6 (R&D Systems), IL-3 (R&D Systems) and 1% penicillin/streptomycin (P/S; Gibco) for the first 10 days and in StemSpan SFEM II supplemented with SCF and IL-6 and 1% P/S for the remaining time in culture. […] Supernatant was collected and histamine levels were measured using a Histamine ELISA kit (Eagle Biosciences). […] Percent of activated mast cells was calculated as number of activated mast cells over the total number of mast cells.
Compound 128 Inhibits Calcium Signaling in Human Mast Cells. […] The median fluorescence intensity of cytosolic calcium was measured across the stimulation time period and graphed to represent the calcium influx profile. The area under the curve (AUC) of the calcium influx profile was calculated and normalized as a percent of stimulated control. […]
On the technique in general: Calcium flux is commonly read through the fluorescence of an indicator in the cells.

Another assay relates to ISM-like mast cells. Kind of assay: Antigen-induced degranulation (CD63 and histamine) in ISM-like mast cells. As to conditions: ISM-like (+SCF) mast cells, two hours treatment prior to stimulation. The format is cell-based, human. As for the experimental part:
as §1
Human mast cells were differentiated from bone marrow CD34+ cells from six healthy donors, cultured and sensitized as set forth in Example 4. […] The median fluorescence intensity of phosphorylated BTK was measured. CD63 and histamine levels in these cells were measured and percent activated mast cells were calculated as set forth in Example 4. The percent of stimulated control for pBTK, activated mast cells (CD63+) and histamine levels was calculated. […]

Another assay relates to serum tryptase. Kind of assay: Serum tryptase in ISM patients. The format is in vivo, human. The note with it: 100 mg or 150 mg BID. As for the experimental part: Also, blood samples were collected at the following timepoints: Cycle 1, Day 1: pre-dose (within 30 minutes prior to the morning dose), 0.5, 1.0, 2.0, 3.0, 4.0, and 6.0 hours (+15 minutes) post-morning dose. Cycle 1, Day 8: pre-dose (within 30 minutes prior to the morning dose) and 2 hours (+15 minutes) post-morning dose. Serum tryptase tests were conducted according to Example 14.
The measurement of serum tryptase can be followed to the procedure described in the literature (McMurray et al., Standardized indolent systemic mastocytosis evaluations across a health care system: implications for screening accuracy, Blood (2024) 144 (4): 408-419). Briefly, the procedure begins with proper patient preparation, avoiding recent physical activity or triggers that could cause mast cell activation. Venous blood samples, preferably drawn when the patient is not experiencing acute symptoms, are collected in serum separator tubes (SSTs) or plain red-top tubes, with approximately 5 mL of blood needed for analysis. After collection, the blood is allowed to clot at room temperature for 30-60 minutes before centrifugation for 10-15 minutes. The serum is then carefully separated from the cells and stored at 2-8° C. for short-term analysis or frozen at −20° C. or lower for long-term storage. […]

Assay [1] has as its system mast cell from an ISM patient. Kind of assay: IgE-mediated calcium influx in ISM patient mast cells (FIG. 17). Type of assay: cell-based, human. The note with it: presence of SCF, prior to antigen stimulation. As for the experimental part:
Mast cell from an ISM patient was treated with Compound 128 at 50 mg, 75 mg, 100 mg, and 150 mg BID dose prior to antigen (Ag) stimulation. ISM 3-2 mast cell donor MC 1061-004 C1D8 D39. Experiments performed in the presence of SCF. […] Percent of Control (POC) based on Area-under-Curve above baseline (1st value).

The test system of assay [2] is mast cells derived from ISM patients. The assay can be described thus: Degranulation of mast cells grown from CD34+ blood cells from ISM patients (FIG. 22). Type of assay: cell-based, human. The note with it: antigen stimulation in absence of SCF.
The next assay concerns the target BTK (Homo sapiens, UniProt Q06187). Kind of assay: BTK phosphorylation in mast cells (FIG. 19). The format is cell-based. Set-up: endogenous in cells. The note with it: correlating with calcium signaling, CD63, CD203c, histamine release.

Here are results for one compound from patent US20250360130A1, “METHODS OF TREATING INDOLENT SYSTEMIC MASTOCYTOSIS” (Telios Pharma Inc., priority 2024, published 2025).

Where only a bound is given, the exact number is not on record here.

Chain of BTK (Q06187 whole entry): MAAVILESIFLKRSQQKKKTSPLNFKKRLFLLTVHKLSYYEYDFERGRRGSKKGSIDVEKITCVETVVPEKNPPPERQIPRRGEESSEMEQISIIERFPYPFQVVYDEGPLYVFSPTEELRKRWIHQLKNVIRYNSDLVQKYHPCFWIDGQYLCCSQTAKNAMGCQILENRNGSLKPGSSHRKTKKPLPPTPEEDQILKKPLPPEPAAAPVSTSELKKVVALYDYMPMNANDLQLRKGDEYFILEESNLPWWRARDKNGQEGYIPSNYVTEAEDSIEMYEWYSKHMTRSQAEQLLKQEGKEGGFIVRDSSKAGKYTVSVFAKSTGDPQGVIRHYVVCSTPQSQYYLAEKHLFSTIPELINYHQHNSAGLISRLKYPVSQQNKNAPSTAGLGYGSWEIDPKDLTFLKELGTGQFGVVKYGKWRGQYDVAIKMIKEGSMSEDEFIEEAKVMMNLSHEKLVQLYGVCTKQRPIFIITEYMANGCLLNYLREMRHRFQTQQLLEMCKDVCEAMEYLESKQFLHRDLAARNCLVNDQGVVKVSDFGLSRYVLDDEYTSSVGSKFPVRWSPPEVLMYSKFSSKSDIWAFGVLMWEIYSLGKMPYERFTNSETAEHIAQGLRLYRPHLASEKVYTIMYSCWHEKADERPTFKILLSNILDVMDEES

`C=CC(=O)N1CCC(F)(CNc2ncnc(N)c2-c2ccc(Oc3ccccc3)cc2)CC1` [Compound 128, 1-(4-(((6-amino-5-(4-phenoxyphenyl)pyrimidin-4-yl)amino)methyl)-4-fluoropiperidin-1-yl)prop-2-en-1-one]: the “calcium influx, percent of stimulated control” value in the assay on human mast cells (ISM-like (+SCF) mast cells) is reported as “less than 7%”; in the assay on human mast cells (healthy (−SCF) mast cells) it was less than 3%. Also, the “IgE-mediated degranulation (CD63 and histamine)” value in the assay with ISM-like mast cells is “potently inhibits”. The “reduction in serum tryptase levels” value in the assay on serum tryptase was “effective in reducing serum tryptase levels”. Moreover, the IgE-mediated calcium influx entry in assay [1] is reported as “potently inhibits”. Also, the “degranulation of ISM patient-derived mast cells” value in assay [2] is recorded as “inhibited the degranulation”. In addition, the “inhibition of BTK phosphorylation in mast cells” value at BTK was “high potency”.
